Data set [1] deals with multiple myeloma. The conditions noted are these: cited from earlier work.
For data set [2] the following is noted: cited from earlier work.
Data set [3] can be described thus: side effects / peripheral neuropathy in the treated multiple myeloma patient. The format is in vivo, human. As for the experimental part:
The patient had previously only used IV bortezomib, since it had been effective up to that point. Resistance to bortezomib is thought to result from overproduction of proteosomal subunits, that then require a higher concentration of drug before enough subunits are blocked to reduce the degradation of misfolded myeloma antibodies. The highest recommended dose of bortezomib is 1.3 mg/m^2, since the next higher dose of 1.7 mg/m^2 regularly produces grade 3-4 peripheral neuropathy. […] The patient reasoned that reducing the toxicity of bortezomib by using SubQ rather than IV and using the FMED to induce protective stress-resistance pathways in their neural and supporting glial cells might allow the use of “toxic” doses of bortezomib. […] The first two cycles were performed to verify whether the approach worked. […] Since the “toxic” bortezomib dose was essentially monotherapy, a different IMID was added for a third cycle in the hope that the patient's MM cells would be sensitive and one would be treating with at least two drugs. One third of patients resistant to lenalidomide respond to pomalidomide, which was thus added during the third cycle.

In data set [4] the test system is multiple myeloma. The data set is described as follows: free kappa light chain tumor marker in a multiple myeloma patient (case report). Type of data set: in vivo, human. As to conditions: for response of free kappa light chain tumor marker / myeloma cells to the regimen: single patient, successive regimens 2006-2012 and later.
For data set [5] the following is noted: Biaxin competes for the liver detoxification system that inactivates dexamethasone; cited from earlier work.
The mark [6] stands for this setting: SubQ compared with IV bortezomib.

Results on five molecules are retold here after patent US20190029301A1, “USE OF LONG-TERM FASTING MIMICKING AS DIETARY TREATMENT FOR MULTIPLE MYELOMA AND OTHER CANCERS” (UNIVERSITY OF SOUTHERN CALIFORNIA, priority 2016, published 2019).

Molecules are shown by their SMILES.

As for `CC(C)C[C@H](NC(=O)[C@H](Cc1ccccc1)NC(=O)c1cnccn1)B(O)O` [bortezomib], the “effectiveness of SubQ versus IV administration” value in data set [1] (setting [6]) is recorded as “as effective as IV bortezomib”. Moreover, the “side effects of SubQ versus IV administration” value in data set [2] (setting [6]) was “reduced side effects”. Besides, in data set [2] (dose of 1.7 mg/m^2), the peripheral neuropathy grade was 3-4. Besides, the side-effects result in data set [3] (subcutaneous bortezomib 1.7 mg/m^2 with FMED) is recorded as “minimal side-effects”. Also, in data set [3] (three cycles of SubQ "toxic" bortezomib + FMED (pomalidomide added in third cycle)), the peripheral neuropathy progression result is listed as “only minor progression”. In data set [4] (SubQ bortezomib at "toxic" dose 1.7 mg/m^2 combined with FMED, FIG. 3), the tumor markers response result is given as “rapid drop”. Besides, the bortezomib sensitivity result in data set [4] (subcutaneous bortezomib 1.7 mg/m^2 with FMED, bortezomib-resistant patient) was “restore bortezomib sensitivity”.
Consider `Nc1cccc2c1CN(C1CCC(=O)NC1=O)C2=O` (centres unmarked) [revlimid, lenalidomide], for which the “response of free kappa light chain tumor marker / myeloma cells to the regimen” value in data set [4] is listed as “developed resistance”.
Take `CC(C)C[C@H](NC(=O)[C@H](CCc1ccccc1)NC(=O)CN1CCOCC1)C(=O)N[C@@H](Cc1ccccc1)C(=O)N[C@@H](CC(C)C)C(=O)[C@@]1(C)CO1` [carfilzomib]: the “response of free kappa light chain tumor marker / myeloma cells to the regimen” value in data set [4] is reported as “ineffective”.
`Nc1cccc2c1C(=O)N(C1CCC(=O)NC1=O)C2=O` (centres unmarked) [pomalidomide]: the “fraction of patients resistant to lenalidomide that respond” value in data set [1] (lenalidomide-resistant patients) is recorded as “One third”.
Consider `CC[C@H]1OC(=O)[C@H](C)[C@@H](O[C@H]2C[C@@](C)(OC)[C@@H](O)[C@H](C)O2)[C@H](C)[C@@H](O[C@@H]2O[C@H](C)C[C@H](N(C)C)[C@H]2O)[C@](C)(OC)C[C@@H](C)C(=O)[C@H](C)[C@@H](O)[C@]1(C)O` [Biaxin], for which the half-life of dexamethasone result in data set [5] is “increases”.
